Patent publication US9085554B2, “Method of evaluating pharmaceutical preparation containing luliconazole and index substance” (POLA PHARMA INC., priority 2013, dated 2015)

Legend:
[1] = Severe test / accelerated test of luliconazole as the active ingredient; type: physicochemical
From the text: Further, it is considered that this amide form is produced by the addition of water with respect to a cyano group of the luliconazole. […] Namely, the presence of the amide form is speculated; however, the substance thereof has not been understood. Accordingly, it is difficult to speculate in the stage of manufacturing the pharmaceutical preparation that such a compound may be produced under a storage condition depending on the type of the solvent.
The severe condition herein refers to a storage condition at 60° C. for 3 weeks, and the accelerated condition herein refers to a storage condition at 40° C. for 6 months. The stability of a pharmaceutical preparation containing luliconazole has shown very good consistency between the severe condition and the accelerated condition. Accordingly, either of the conditions can be used. Further, the storage at 40° C. for 6 months is known as a condition substitutable for the condition at a room temperature for 3 years in an application for manufacturing approval of a pharmaceutical.
It is known that water is usually readily added to a cyano group by an acid or a base and the amide form is thereby produced. However, this generality is not applicable in the case of luliconazole, for the following reason. […]

[2] = system: fungi; assay: Antifungal activity of the amide form

Row | Production of SE form and Z form ([1]; accelerated test and/or severe test) | Production of amide form from luliconazole active ingredient ([1]; severe test (60° C., 3 weeks) or accelerated test (40° C., 6 months) of the active ingredient) | Compound | Antifungal activity [2]
1 | relatively readily produced | hardly produced | N#C/C(=C1/SC[C@@H](c2ccc(Cl)cc2Cl)S1)n1ccnc1 [luliconazole, Luliconazole] | 
2 |  |  | NC(=O)/C(=C1/SC[C@@H](c2ccc(Cl)cc2Cl)S1)n1ccnc1 [amide form, [R-(E)]-α-[4-(2,4-dichlorophenyl)-1,3-dithiolan-2-ylidene]-1H-imidazole-1-acetamide] | low
